Measured values taken from paper PMC6749524, “Identification of New Antifungal Agents Targeting Chitin Synthesis by a Chemical-Genetic Method” (Molecules, 2019).
Like-named read-outs stand apart in the source and are kept apart here.

How the values were obtained:
[1] = tested on: budding yeast; assay: MIC of CFW in the presence of compounds, checkerboard assay; type: cell-based, S. cerevisiae; conditions: budding yeast, CFW alone
Method: (§1) Fresh cell cultures of WT S. cerevisiae and C. albicans ATCC10231 (OD600 = 0.8) were diluted to 10^4 CFU/mL in YPD medium. The in vitro synergistic and antagonistic effects of compounds were determined using checkerboard assay. MIC endpoints were defined as the lowest concentration of drugs, causing 80% decrease in viability compared to the drug-free control (MIC80). The calculation and interpretation of the fractional inhibitory concentration index (FICI) were carried out by referring to the document standards. FICI = (MIC of drug A in combination) / (MIC of drug A alone) + (MIC of drug B in combination) / (MIC of drug B alone). FIC ≤0.5 was considered as a synergistic effect, and >2 was considered as antagonism.

[2] = tested on: C. albicans; assay: as above; type: cell-based, Candida albicans
Method: as §1

[3] = tested on: WT S. cerevisiae strain BY4741; assay: MIC in compound library screening assay, WT yeast; type: cell-based; conditions: for MIC: Saccharomyces cerevisiae
Method: (§2) The compound library is a combination of synthetic compounds from Enamine (Kyiv, Ukraine) and Life Chemicals Inc. (Burlington, ON, Canada) and natural products from the Institute of Medicinal Biotechnology. We used WT, chs3∆, and fks1∆ yeast strains to screen new antifungal agents. The screening assays were performed in 96-well plates in a final volume of 200 μL. Fresh yeast cells (OD600 = 0.8) were diluted to 10^5 CFU/mL in YPD medium. We added 198 μL of diluted culture and 2 μL of compounds into each well, and the final concentration of compounds was 100 μg/mL with 1% DMSO. The yeast cells were incubated at 30 °C for 24 hours to assess the growth. For the compounds that inhibited the growth of all three yeast strains, they were serially diluted to determine the minimal inhibit concentration (MIC) with the same method. MIC endpoints were defined as the lowest concentration of drugs that cause a 90% decrease in growth compared to the drug-free control (MIC90).

[4] = tested on: chs3∆ (chs3::KanMX in BY4741); assay: MIC in compound library screening assay, chs3∆ yeast; type: cell-based, S. cerevisiae; conditions: for MIC: Saccharomyces cerevisiae, 24 h
Method: as §2

[5] = tested on: fks1∆ (fks1::KanMX in BY4741); assay: MIC in compound library screening assay, fks1∆ yeast; type: cell-based, S. cerevisiae; conditions: for MIC: Saccharomyces cerevisiae, 24 h, read-out: MIC, fks1∆
Method: as §2

[6] = tested on: C. albicans ATCC10231; assay: Checkerboard assay, synergy with caspofungin; type: cell-based; conditions: Candida albicans
Method: as §1

[7] = tested on: WT S. cerevisiae; assay: Checkerboard assay, synergy with caspofungin; type: cell-based; conditions: for MIC: Saccharomyces cerevisiae, read-out: MIC Alone
Method: as §1

MIC of CFW [1] | MIC of CFW ([2]; C. albicans, absence of chitin synthesis inhibitor) | Structure (SMILES) | MIC ([3]; WT BY4741, YPD, 30 °C, 24 hours, MIC90, read-out: MIC, WT) | MIC ([4]; read-out: MIC, chs3∆) | MIC [5] | MIC ([6]; ATCC10231, compound alone, MIC80, read-out: MIC Alone) | MIC ([7]; S. cerevisiae, compound alone, MIC80) | MIC ([3]; 24 h, read-out: MIC, WT, WT BY4741, YPD, 30 °C, 24 hours, MIC90) | MIC, WT ([3]; WT BY4741, YPD, 30 °C, 24 hours, MIC90) | MIC ([4]; read-out: MIC, chs3∆, chs3∆ mutant, YPD, 30 °C, 24 hours, MIC90) | MIC, chs3∆ ([4]; chs3∆ mutant, YPD, 30 °C, 24 hours, MIC90) | MIC, fks1∆ ([5]; fks1∆ mutant, YPD, 30 °C, 24 hours, MIC90) | MIC ([6]; ATCC10231, read-out: MIC Alone) | MIC of Caspofungin Combination ([6]; MIC of caspofungin in combination with the named compound, MIC80) | MIC Combination ([6]; MIC of the compound in combination with caspofungin, MIC80) | MIC of Caspofungin Combination ([7]; S. cerevisiae, MIC of caspofungin in combination with the named compound, MIC80) | MIC Combination ([7]; S. cerevisiae, MIC of the compound in combination with caspofungin, MIC80) | FICI ([7]; S. cerevisiae, fractional inhibitory concentration index with caspofungin, ≤0.5 synergistic) | MIC [7] | MIC ([2]; Candida albicans, read-out: MIC of CFW in the presence of nikkomycin Z)
6.25 µg/mL | 12.5 µg/mL | O=S(=O)([O-])c1cc(Nc2nc(Nc3ccccc3)nc(N(CCO)CCO)n2)ccc1/C=C/c1ccc(Nc2nc(Nc3ccccc3)nc(N(CCO)CCO)n2)cc1S(=O)(=O)[O-].[Na+].[Na+] [CFW, Calcofluor White M2R, reference compound] |  |  |  |  |  |  |  |  |  |  |  |  |  |  |  |  |  | 
 |  | CC[C@H](C)C[C@H](C)CCCCCCCCC(=O)N[C@H]1C[C@@H](O)[C@@H](NCCN)NC(=O)[C@@H]2[C@@H](O)CCN2C(=O)[C@H]([C@H](O)CCN)NC(=O)[C@H]([C@H](O)[C@@H](O)c2ccc(O)cc2)NC(=O)[C@@H]2C[C@@H](O)CN2C(=O)[C@H]([C@@H](C)O)NC1=O [Caspofungin, caspofungin] | 0.03 µg/mL | 0.00375 µg/mL | 0.015 µg/mL | 0.025 µg/mL | 0.03 µg/mL |  |  |  |  |  |  |  |  |  |  |  |  | 
 |  | C[C@@H]([C@H](N)C(=O)N[C@H](C(=O)O)[C@H]1O[C@@H](n2ccc(=O)[nH]c2=O)[C@H](O)[C@@H]1O)[C@H](O)c1ccc(O)cn1 [Nikkomycin, nikkomycin Z, reference compound] |  |  | 25 µg/mL |  |  | ≥ 200 µg/mL | > 200 µg/mL | ≥ 200 µg/mL | > 200 µg/mL | 25 µg/mL | 12.5 µg/mL | 0.00625 µg/mL | 3.125 µg/mL | 0.0075 µg/mL | 12.5 µg/mL | <0.5 | > 100 µg/mL | 100 µg/mL
